IC50, Ratio Ki and Activity data for 5 compounds are collected here from ChEMBL document CHEMBL5532741, “Novel 2,4-Dichloro-5-sulfamoylbenzoic Acid Oxime Esters: First Studies as Potential Human Carbonic Anhydrase Inhibitors” (ACS Med Chem Lett, 2024).

The test system of test [1] is MDA-MB-231. Briefly: Antiproliferative activity against human MDA-MB-231 cells measured after 72 hrs by cell counting kit 8 method. The test is classed as functional, cell-based. Particulars: MDA-MB-231, 72 h. In general terms: Formazan colour is commonly taken as a measure of viable cells.
The species named for test [2] is Homo sapiens. Briefly: Selectivity index, ratio of Ki for recombinant human CA9 to Ki for recombinant human CA2.
The species entered for test [3] is Homo sapiens. Briefly: Selectivity index, ratio of Ki for recombinant human CA12 to Ki for recombinant human CA2.
The subject of test [4] is MDA-MB-231. Briefly: Antiproliferative activity against human MDA-MB-231 cells at high concentration measured after 72 hrs by cell counting kit 8 method. The test is classed as functional, cell-based.

The source made the active and inactive calls. The rule behind the calls is not given here.

For orientation: IC50 means the concentration that inhibits the measured activity by half. A higher IC50 goes with lower potency.

With `COc1ccc(/C=N/OC(=O)c2cc(S(N)(=O)=O)c(Cl)cc2Cl)c(OC)c1OC`, inhibition in the test on MDA-MB-231 [1] was half-maximal at 113 µM (IC50).
On to `NS(=O)(=O)c1cc(C(=O)O)c(Cl)cc1Cl`, for which the values for the Ratio Ki in the test listed under Homo sapiens [2] and in the test listed under Homo sapiens [3] were 7.9 and 22.7, respectively.
For `NS(=O)(=O)c1cc(C(=O)O/N=C/c2ccccc2)c(Cl)cc1Cl`, the result with MDA-MB-231 [4] was inactive.
`COc1cccc(OC)c1/C=N/OC(=O)c1cc(S(N)(=O)=O)c(Cl)cc1Cl`: inhibition in the test on MDA-MB-231 [1] was half-maximal at 108 µM (IC50).
In the test with MDA-MB-231 [1], `NS(=O)(=O)c1ccc(NC(=O)Nc2ccc(F)cc2)cc1` [SLC-0111] yielded an IC50 of 18.2 µM.
